As usually defined, the IC50 is the point on the concentration scale where inhibition reaches its midpoint. As a reminder, the half-life is the time needed for the level to fall by half in the phase considered.

Calls of active or inactive are those of the source.

Data set [1] deals with Plasmodium falciparum. As to the kind of experiment: microbe, parasite or virus in culture. Conditions: Dd2, 48 h.
Description: Antiplasmodial activity against chloroquine-resistant Plasmodium falciparum Dd2 incubated for 48 hrs by parasite lactate dehydrogenase assay
The test system of data set [2] is Plasmodium falciparum. As to the kind of experiment: microbe, parasite or virus in culture. To be noted: NF54, 48 h.
Description: Antiplasmodial activity against chloroquine-sensitive Plasmodium falciparum NF54 incubated for 48 hrs by parasite lactate dehydrogenase assay
The next data set relates to CHO. As to the kind of experiment: Cytotoxicity in CHO cells assessed as reduction in cell viability. To be noted: Cricetulus griseus. Format: cell-based.
Data set [3] is described as follows: in vitro. Conditions: hamster, CHO cells versus Plasmodium falciparum NF54.
Description: Selectivity index, ratio of IC50 for CHO cells to IC50 for antiplasmodial activity against chloroquine-sensitive Plasmodium falciparum NF54
The nature of data set [4]: in vitro. Conditions: hamster, CHO cells versus Plasmodium falciparum Dd2.
Description: Selectivity index, ratio of IC50 for CHO cells to IC50 for antiplasmodial activity against chloroquine-resistant Plasmodium falciparum Dd2
Data set [5] concerns Plasmodium berghei. Put plainly: Antimalarial activity against Plasmodium berghei infected in mouse assessed as host survival at 33.3 mg/kg, po dosed once daily on days 0, 1, and 2 days post infection measured on day 28 post infection relative to untreated control. Type of data set: functional, organism-based.
Data set [6] can be described thus: Half life human liver microsomes in the presence of NADPH. Format: ADME, Microsome. A general note: Microsomes from liver hold many membrane-bound enzymes, among them those of drug oxidation.
Data set [7] relates to Plasmodium berghei. Put plainly: Antimalarial activity against Plasmodium berghei infected in mouse assessed as host survival at 11.1 mg/kg, po dosed once daily on days 0, 1, and 2 days post infection measured on day 28 post infection relative to untreated control. Format: functional, organism-based.
Data set [8] in a line: Intrinsic clearance human liver microsomes in the presence of NADPH. Type of data set: ADME, Microsome. To be noted: read-out: CLH.
Data set [9] has as its system Plasmodium berghei. Put plainly: Antimalarial activity against Plasmodium berghei infected in mouse assessed as mean survival time at 11.1 mg/kg, po dosed once daily on days 0, 1, and 2 days post infection measured on day 28 post infection (reference value: 13.2 days). Type of data set: functional.
Data set [10] deals with Plasmodium berghei. As to the kind of experiment: Antimalarial activity against Plasmodium berghei infected in mouse assessed as suppression in parasitemia at 11.1 mg/kg, po dosed once daily on days 0, 1, and 2 days post infection measured on day 7 post infection relative to untreated control. Format: functional.
In data set [11] the test system is Plasmodium berghei. Put plainly: Antimalarial activity against Plasmodium berghei infected in mouse assessed as suppression in parasitemia at 33.3 mg/kg, po dosed once daily on days 0, 1, and 2 days post infection measured on day 7 post infection relative to untreated control. Type of data set: functional.
Data set [12] concerns Plasmodium berghei. As to the kind of experiment: Antimalarial activity against Plasmodium berghei infected in mouse assessed as suppression in parasitemia at 11.1 mg/kg, po dosed once daily on days 0, 1, and 2 days post infection measured on day 5 post infection relative to untreated control. Type of data set: functional.
The subject of data set [13] is Plasmodium berghei. As to the kind of experiment: Antimalarial activity against Plasmodium berghei infected in mouse assessed as suppression in parasitemia at 33.3 mg/kg, po dosed once daily on days 0, 1, and 2 days post infection measured on day 5 post infection relative to untreated control. Type of data set: functional.
For data set [14], the system named is Plasmodium berghei. Put plainly: Antimalarial activity against Plasmodium berghei infected in mouse assessed as mean survival time at 33.3 mg/kg, po dosed once daily on days 0, 1, and 2 days post infection measured on day 28 post infection (reference value: 13.2 days). Type of data set: functional.
Data set [15] has as its system Plasmodium berghei. Put plainly: Antimalarial activity against Plasmodium berghei infected in mouse assessed as parasitemia cure at 33.3 mg/kg, po dosed once daily on days 0, 1, and 2 days post infection measured on day 28 post infection. Type of data set: functional, organism-based.
The test system of data set [16] is Plasmodium berghei. As to the kind of experiment: Antimalarial activity against Plasmodium berghei infected in mouse assessed as parasitemia cure at 11.1 mg/kg, po dosed once daily on days 0, 1, and 2 days post infection measured on day 28 post infection. Type of data set: functional, organism-based.

With `Cc1cc(NCc2cc(Nc3ccnc4cc(Cl)ccc34)ccc2F)nc(N2CCOCC2)n1`, the IC50 with Plasmodium falciparum [1] amounted to 33.3 nM; in the data set on Plasmodium falciparum [2], 26.7 nM; in the data set with CHO, 14600 nM. Besides, the selectivity ratio in the data set “in vitro [3]” turned out to be 544; in “in vitro [4]” it was 437.
The like results for `Cc1cc(N2CCN(c3ccccc3)CC2)nc(NCc2cc(Nc3ccnc4cc(Cl)ccc34)ccc2F)n1` were, in that order, 62.2 nM, 69.8 nM, 17500 nM, 251 and 282.
For the molecule `Cc1cc(N2CCSCC2)nc(NCc2cc(Nc3ccnc4cc(Cl)ccc34)ccc2F)n1`, the results for the IC50 in the data set with Plasmodium falciparum [1], in the data set on Plasmodium falciparum [2] and in the data set with CHO were 16 nM, 7.47 nM and 2710 nM, respectively. For the same molecule, the selectivity ratio in “in vitro [3]” is 362; in the data set “in vitro [4]”, 169.
On to `Cc1cc(NCc2cc(Nc3ccnc4cc(Cl)ccc34)ccc2F)nc(Cl)n1`, for which the IC50 turned out to be 214 nM with Plasmodium falciparum [1] and 183 nM in the data set on Plasmodium falciparum [2].
Regarding `Cc1cc(NCc2cc(Nc3ccnc4cc(Cl)ccc34)ccc2F)nc(N2CCN(c3ccccc3)CC2)n1`, the IC50 came to 31.3 nM with Plasmodium falciparum [1], 17.7 nM with Plasmodium falciparum [2] and 17400 nM in the data set with CHO. For the same molecule, the selectivity ratio was 981 in the data set “in vitro [3]” and 555 in “in vitro [4]”.
On to `CCN(CC)Cc1cc(Nc2ccnc3cc(Cl)ccc23)ccc1O` [AMODIAQUINE], for which the result in the data set on Plasmodium berghei [5], in the data set on Plasmodium berghei [7] and in the data set on Plasmodium berghei [15] was Active. Further, the half-life in [6] turned out to be 5.4 min. The microsomal CLint in [8] was 431 µL/min/mg. Besides, the MST in the data set with Plasmodium berghei [9] and with Plasmodium berghei [14] was 28 days each time. For the same molecule, the Activity in the data set with Plasmodium berghei [10], in the data set with Plasmodium berghei [11], in the data set on Plasmodium berghei [12] and in the data set with Plasmodium berghei [13] was 100% in each case.
For `CCN1CCN(c2nc(C)cc(NCc3cc(Nc4ccnc5cc(Cl)ccc45)ccc3F)n2)CC1`, the IC50 came out at 7.63 nM in the data set with Plasmodium falciparum [1] and 11.2 nM in the data set with Plasmodium falciparum [2].
On to `C[C@H]1[C@H](OC(=O)CCC(=O)O)O[C@@H]2O[C@@]3(C)CC[C@H]4[C@H](C)CC[C@@H]1[C@@]24OO3` [ARTESUNATE], for which the IC50 with Plasmodium falciparum [1] was 13 nM; in the data set on Plasmodium falciparum [2], 10 nM.
In the case of `CCN(CC)CCCC(C)Nc1ccnc2cc(Cl)ccc12` (stereo not drawn) [CHLOROQUINE], the result in the data set with Plasmodium berghei [5] and with Plasmodium berghei [7] was Active. In addition, the result in the data set on Plasmodium berghei [16] was inactive. Also, the MST in the data set with Plasmodium berghei [9] and in the data set on Plasmodium berghei [14] was 28 days each time. Also, the Activity in the data set with Plasmodium berghei [10] was found to be 99.2%; in the data set on Plasmodium berghei [11] it was 100%; in the data set on Plasmodium berghei [12] it was 100%; in the data set on Plasmodium berghei [13], 100%.
With `Cc1cc(NCc2cc(Nc3ccnc4cc(Cl)ccc34)ccc2F)nc(N2CCCC2)n1`, the IC50 in the data set on Plasmodium falciparum [1] turned out to be 8.23 nM; in the data set with Plasmodium falciparum [2], 12.4 nM; in the data set on CHO it was 3800 nM. The results for the selectivity ratio in the data set “in vitro [3]” and in the data set “in vitro [4]” were 306 and 462, respectively.
With `Cc1cc(NCc2cc(Nc3ccnc4cc(Cl)ccc34)ccc2F)nc(N2CCCCCC2)n1`, the IC50 worked out at 27.2 nM with Plasmodium falciparum [1] and 16.9 nM with Plasmodium falciparum [2].
Consider `Cc1cc(NCc2cc(Nc3ccnc4cc(Cl)ccc34)ccc2F)nc(N2CCSCC2)n1`, for which the IC50 was found to be 33.1 nM in the data set with Plasmodium falciparum [1], 22.8 nM in the data set on Plasmodium falciparum [2] and 15200 nM in the data set on CHO. Moreover, the values for the selectivity ratio in “in vitro [3]” and in “in vitro [4]” were 664 and 459, respectively.
Regarding `Cc1cc(N2CCCC2)nc(NCc2cc(Nc3ccnc4cc(Cl)ccc34)ccc2F)n1`, the IC50 amounted to 74.9 nM with Plasmodium falciparum [1] and 89 nM in the data set on Plasmodium falciparum [2].
Turning to `N#Cc1cc(Nc2ccnc3cc(Cl)ccc23)ccc1F`, the IC50 with Plasmodium falciparum [1] is 3200 nM; in the data set on Plasmodium falciparum [2], more than 3360 nM.
`CCN1CCN(c2cc(C)nc(NCc3cc(Nc4ccnc5cc(Cl)ccc45)ccc3F)n2)CC1`: the results for the IC50 in the data set on Plasmodium falciparum [1], in the data set on Plasmodium falciparum [2] and with CHO were 23.4 nM, 28.9 nM and 80300 nM, respectively. Also, the values for the selectivity ratio in “in vitro [3]” and in “in vitro [4]” were 2780 and 3430, respectively.
Regarding `Cc1cc(N2CCCCCC2)nc(NCc2cc(Nc3ccnc4cc(Cl)ccc34)ccc2F)n1`, the IC50 was 67.5 nM in the data set with Plasmodium falciparum [1] and 148 nM in the data set with Plasmodium falciparum [2].
As to `Cc1cc(N2CCN(C)CC2)nc(NCc2cc(Nc3ccnc4cc(Cl)ccc34)ccc2F)n1`, the IC50 is 18.4 nM with Plasmodium falciparum [1], 15.3 nM in the data set with Plasmodium falciparum [2] and 58200 nM in the data set with CHO. For the same molecule, the figures for the selectivity ratio in the data set “in vitro [3]” and in “in vitro [4]” were 3800 and 3160, respectively.
Turning to `Cc1cc(N2CCOCC2)nc(NCc2cc(Nc3ccnc4cc(Cl)ccc34)ccc2F)n1`, the IC50 worked out at 17.9 nM in the data set on Plasmodium falciparum [1], 12.1 nM with Plasmodium falciparum [2] and 4590 nM with CHO. For the same molecule, the figures for the selectivity ratio in the data set “in vitro [3]” and in the data set “in vitro [4]” were 380 and 256, respectively.
`Cc1cc(NCc2cc(Nc3ccnc4cc(Cl)ccc34)ccc2F)nc(N2CCCCC2)n1`: the half-inhibitory concentration (IC50) in the data set on Plasmodium falciparum [1] worked out at 17.2 nM; with Plasmodium falciparum [2] it was 13.8 nM.
As to `NCc1cc(Nc2ccnc3cc(Cl)ccc23)ccc1F`, the values for the IC50 in the data set with Plasmodium falciparum [1], with Plasmodium falciparum [2] and in the data set on CHO were 58.7 nM, 46.1 nM and 31300 nM, respectively. The results for the selectivity ratio in the data set “in vitro [3]” and in “in vitro [4]” were 680 and 533, respectively.
For the molecule `Cc1cc(Cl)nc(NCc2cc(Nc3ccnc4cc(Cl)ccc34)ccc2F)n1`, the IC50 stood at 297 nM with Plasmodium falciparum [1] and 231 nM in the data set on Plasmodium falciparum [2].

The values above are taken from ChEMBL document CHEMBL4433224, “Hybridization of Fluoro-amodiaquine (FAQ) with Pyrimidines: Synthesis and Antimalarial Efficacy of FAQ-Pyrimidines” (ACS Med Chem Lett, 2019).
